Experiments:
[1] = Examination of salts of Compound 17 for crystallization; type: physicochemical; settings: for State: salt of Compound 17 with the stated counter base, concentrated from methanol, triturated with various solvents; for State of the salt: salts of Compound 17 with the named bases
Description: Then, the mixture was concentrated under reduced pressure and trituration was conducted with using various solvents. For the examination, ethyl acetate, methyl t-butyl ether, n-hexane and the like were used as the solvents.

[2] = Chemical stability test (residual percentage by HPLC after storage); type: physicochemical; settings: for Residual percentage (%): relative to sample stored at −20° C., HPLC; for residual percentages: during storage under each condition
Description: With respect to Compound 17 and Crystalline forms A, B and C of Compound 18, chemical stability test was conducted according to the method and the condition below.
In a laboratory tube, approximately 1.5 to 3 mg of a test compound was weighed and stored under the condition below.
After storing, the residual percentage (%) of the sample stored under each condition relative to the area percentage of the main component in the sample stored at −20° C. was calculated with using HPLC. In addition, the appearance was observed by eye and compared with the sample stored at −20° C.
80° C.: One week, two weeks and one month
60° C.: Two weeks and one month
40° C.: Two weeks, one month, two months, four months and six months
25° C.-60% RH: Two months, four months and six months
5° C.: Two months, four months and six months
40° C.-75% RH (opened): Two weeks, one month, two months, four months and six months
25° C.-40% RH (opened): Two weeks, one month and two months
25° C.-60% RH (opened): Two weeks, one month and two months
25° C.-75% RH (opened): Two weeks, one month and two months
The samples to be compared with the samples above were stored at −20° C.
A sample to be evaluated was dissolved in a mixed solution of acetonitrile/20 mmol/L KH2PO4 aq. (pH3.0 with H3PO4) (1/1) and a solution of 1.0 mg/mL (concentration as a salt) was prepared.
Detector: Ultraviolet absorptiometer (measurement wavelength: 215 nm)
Column: CHIRALCEL OD-3R (150×4.6 mm, S-5 μm)
Column temperature: 25° C.
Mobile phase: Solution A: 20 mmol/L KH2PO4 aq. (pH3.0 with H3PO4), Solution B: CH3CN
Area measurement range: 35 minutes

[3] = tested on: bladder detrusor; assay: Evaluation of the activity to contract the bladder detrusor (bladder strip specimens, Magnus system); type: tissue-based; settings: rat bladder strip; for Change of tension (%): contraction evoked by potassium chloride solution (7.5 mmol/L) set at 100%
Description: Rats were anesthetized with pentobarbital, followed by abdominal incision to remove the bladders and the urethras. The bladder bodies were cut in the longitudinal direction to prepare strip specimens with a size of about 10×3 mm. Additionally, each of the urethras was also cut in the longitudinal direction to prepare specimens with a size of about 10×3 mm. The prepared specimens were suspended in Krebs buffer (37° C., 5 mL), which was aerated with a mixed gas of 95% O2 and 5% CO2. The tension values of the specimens were measured using a Magnus system equipped with an isometric transducer and an amplifier, and the measured values were recorded on a computer via a data collection system. The specimens were suspended with a load of about 0.5 g. More than 1 hr later, potassium chloride (100 mmol/L) was added and the maximal contraction response was observed. After washing with Krebs buffer, the specimens were suspended with a load of about 0.5 g for stabilization. A potassium chloride solution (7.5 mmol/L) was added to induce the contraction of the specimens. After the contraction-inducing response was stabilized, the test compound was added in a cumulative manner and the response was observed before and after the treatment with the drug. The change of tension (%) of a test compound of each concentration was calculated with setting the contraction evoked by the addition of potassium chloride solution (mg) at 100%.

| Compound | State [1] | State of the salt [1] | further results |
| --- | --- | --- | --- |
| COC1CCNCC1 | Oily | – | – |
| CN1CCCCC1 | Oily | – | – |
| Arginine | Oily | amorphous oily substances | – |
| C1CCCNCC1 | Oily | – | – |
| C[C@@](O)(C/C=C/[C@H]1CCC(=O)[C@@H]1CCSc1nc(C(=O)O)cs1)CCC(F)=C(F)F [Crystalline Form B, piperidin-4-ylmethanol 2-[(2-{(1R,5R)-2-oxo-5-[(1E,4S)-7,8,8-trifluoro-4-hydroxy-4-methyl-1,7-octadien-1-yl]cyclopentyl}ethyl)thio]-1,3-thiazole-4-carboxylate] | – | – | Residual percentage (%) ([2]; 40° C.-75% RH-one month): 92.6%; Residual percentage (%) ([2]; 40° C.-one month): 99.6%; Residual percentage (%) ([2]; 60° C.-one month): 98.3% |
| OCCC1CCNCC1 [drawing 22] | Oily | – | – |
| CC1CCNCC1 [drawing 23] | Oily | – | – |
| C[C@@](O)(C/C=C/[C@H]1CCC(=O)[C@@H]1CCSc1nc(C(=O)O)cs1)CCC(F)=C(F)F [Crystalline Form C, piperidin-4-ylmethanol 2-[(2-{(1R,5R)-2-oxo-5-[(1E,4S)-7,8,8-trifluoro-4-hydroxy-4-methyl-1,7-octadien-1-yl]cyclopentyl}ethyl)thio]-1,3-thiazole-4-carboxylate] | – | – | Residual percentage (%) ([2]; 40° C.-75% RH-one month): 97.5%; Residual percentage (%) ([2]; 40° C.-one month): 99.4%; Residual percentage (%) ([2]; 60° C.-one month): 97.9% |
| OCCC1CCNCC1 [4-piperidineethanol] | – | amorphous oily substances | – |
| OC1CCNCC1 [4-hydroxypiperidine] | – | amorphous oily substances | – |
| c1ccc2c(c1)CNC2 | Oily | – | – |
| CCN(CC)CC [Triethylamine] | Oily | amorphous oily substances | – |
| OCCNCCO [Diethanolamine] | Oily | amorphous oily substances | – |
| CCNCCCCO | Oily | – | – |
| OC1CCNCC1 [drawing 24] | Oily | – | – |
| CNCCOC | Oily | – | – |
| Piperidin-4-ylmethanol 2-[(2-{(1R,5R)-2-oxo-5-[(1E,4S)-7,8,8-trifluoro-4-hydroxy-4-methyl-1,7-octadien-1-yl]cyclopentyl}ethyl)thio]-1,3-thiazole-4-carboxylate [Compound 18] | Crystalline solid | – | Change of tension (%) ([3]; 1 nmol/L): 5.97%; Change of tension (%) ([3]; 10 nmol/L): 54.35%; Change of tension (%) ([3]; 100 nmol/L): 177.91%; Change of tension (%) ([3]; 1 μmol/L): 245.91%; Effect on the bladder detrusor (in words) [3]: contracted the bladder detrusor; residual percentages [2]: ≥ 90% |
| Sodium | Oily | amorphous oily substances | – |

| Compound | State [1] | State of the salt [1] | further results |
| --- | --- | --- | --- |
| C1=CCNCC1 | Oily | – | – |
| CNCCCO | Oily | – | – |
| c1ccc(CNCc2ccccc2)cc1 | Oily | – | – |
| C[C@@](O)(C/C=C/[C@H]1CCC(=O)[C@@H]1CCSc1nc(C(=O)O)cs1)CCC(F)=C(F)F [Crystalline Form A, piperidin-4-ylmethanol 2-[(2-{(1R,5R)-2-oxo-5-[(1E,4S)-7,8,8-trifluoro-4-hydroxy-4-methyl-1,7-octadien-1-yl]cyclopentyl}ethyl)thio]-1,3-thiazole-4-carboxylate] | – | – | Residual percentage (%) ([2]; 40° C.-75% RH-one month): 92.0%; Residual percentage (%) ([2]; 40° C.-one month): 99.6%; Residual percentage (%) ([2]; 60° C.-one month): 98.6% |
| C1CCC(NC2CCCCC2)CC1 [Dicyclohexylamine] | Oily | amorphous oily substances | – |
| CCCCNCCC | Oily | – | – |
| CNCCNC | Oily | – | – |
| [Mg] [Magnesium] | Oily | amorphous oily substances | – |
| CC1CCNCC1 [4-methylpiperidine] | – | amorphous oily substances | – |
| OC[C@@H]1CCCN1 | Oily | – | – |
| [Ca] [Calcium] | Oily | amorphous oily substances | – |
| C[C@@](O)(C/C=C/[C@H]1CCC(=O)[C@@H]1CCSc1nc(C(=O)O)cs1)CCC(F)=C(F)F [Compound 17, 2-[(2-{(1R,5R)-2-oxo-5-[(1E,4S)-7,8,8-trifluoro-4-hydroxy-4-methyl-1,7-octadien-1-yl]cyclopentyl}ethyl)thio]-1,3-thiazole-4-carboxylic acid] | – | – | Residual percentage (%) ([2]; 40° C.-75% RH-one month): 58.6%; Residual percentage (%) ([2]; 40° C.-one month): 76.0%; Residual percentage (%) ([2]; 60° C.-one month): 60.4%; residual percentages [2]: decreased |
| C=CCNCC=C | Oily | – | – |
| C#CCN(C)C | Oily | – | – |
| CCc1ncc[nH]1 | Oily | – | – |
| CC(C)(C)N [t-Butylamine] | Oily | – | – |
| Lysine | Oily | amorphous oily substances | – |
| [K+] [Potassium] | Oily | amorphous oily substances | – |

Reference: patent US9643940B2, “Amine salt and crystals thereof” (ONO PHARMACEUTICAL CO., LTD., priority 2012, dated 2017)
